Results published in US20250034116A1, “1,4-DIHETEROCYCLIC SUBSTITUTED AROMATIC RING OR AROMATIC HETEROCYCLIC COMPOUND AND USE THEREOF” (BeBetter Med Inc., priority 2022, published 2025).

Tests used:
[1] = system: CYP enzymes in human liver microsomes (HLM); test: Inhibition of 20-HETE production in human liver microsomes (HLM); format: biochemical
Description: (§1) Experimental principle: The inhibitory activity of 20-HETE production is evaluated by testing the inhibitory effects of the compound on human liver microsomes (HLM), rat liver microsomes (RLM), mouse liver microsomes (MLM), or […] CYP4 subtype enzymes (CYP4F2). This assay employs HLM, RLM, or MLM along with recombinant CYP4F2 (rCYP4F2) and recombinant CYP4A11 (rCYP4A11), which are […] CYP4 subtype enzymes, to detect the effects of the test compound at different concentrations on the metabolic rate of enzyme-specific substrates, to determine the inhibitory effects of the test compound on CYP enzymes in HLM, RLM, or MLM.
(§2) Experimental methods: Dissolve the test compound in DMSO, and subsequently dilute it with an acetonitrile and DMSO mixture (3:1). Add 2 μl of varying concentrations of the test compound and 100 μl of potassium phosphate buffer containing either liver microsomes or recombinant enzymes to a 96-well plate. After mixing well, transfer 30 μl to another well (in duplicate), add 15 μl of 400 μM substrate solution, and mix well again. Preheat at 37° C. for 10 minutes, and then add 15 μl of 6 mM NADPH and incubate at 37° C. for 25 minutes. After 25 minutes, add 160 μl of acetonitrile solution (containing 0.1 μg/ml internal standard) to stop the reaction. Mix well, centrifuge at 3500 g for 15 minutes, and then analyze the supernatant using LC-MS/MS.
(§3) Plot the compound concentration on the x-axis and the inhibition rate on the y-axis to draw the curve. Use GraphPad Prism 5 software to fit the curve and calculate the IC50. The formula is Y=Bottom+(Top−Bottom)/(1+10^((Log IC50−X)×HillSlope)). X represents the logarithmic concentration of the inhibitor, and Y represents the relative enzyme activity at a given inhibitor concentration (relative to the condition without the inhibitor).
(§4) Calculate the inhibition percentages at concentrations of 1000 nM, 500 nM, or 100 nM as well as the half-maximal inhibitory concentration (IC50) of the test compound from the above experiment.

[2] = system: CYP enzymes in mouse liver microsomes (MLM); test: Inhibition of 20-HETE production in mouse liver microsomes (MLM); format: biochemical
Description: as §1, §2, §3, §4

[3] = Pharmacokinetic (PK) experiment, oral administration in rats; format: in vivo, Male SD rats; settings: 20 mg/kg; for AUC(0-inf) / Cmax / Tmax / half-life / AUC(0-t): male, SD, rat, plasma; for AUC(0-t): read-out: AUC0-24
Description: Male SD rats, weighing 180-250 grams, were fasted overnight before testing. The test compound was dissolved in 30% sulfobutylether-β-cyclodextrin and administered orally at a dose of 20 mg/kg. Blood was collected from the tail vein at 15 minutes, 30 minutes, and 1, 2, 4, 6, 8, and 24 hours after administration. Approximately 0.3 ml of blood was collected at each time point, placed in a centrifuge tube containing K2-EDTA, and centrifuged (2000 g for 10 minutes at 4° C.) to take the plasma, which was then stored in an ultra-low temperature freezer at −70° C. or below. A 50 μL plasma sample was mixed with 135 μL of acetonitrile (containing 0.5 μg/mL internal standard) and vortexed for protein precipitation. After centrifugation, the supernatant was taken for LC-MS/MS analysis.

[4] = system: CYP enzymes in rat liver microsomes (RLM); test: Inhibition of 20-HETE production in rat liver microsomes (RLM); format: biochemical
Description: as §1, §2, §3, §4

Row | SMILES | HLM (% inh @ 100 nM) [1] [%] | MLM (% inh @ 1000 nM) [2] [%] | IC50 [1] [nM] | HLM (% inh @ 500 nM) [1] [%] | RLM (% inh @ 500 nM) [4] [%] | other results
1 | O=C(C1CCC(O)C1)N1CCC(c2ccc(-c3cn[nH]c3)cc2F)CC1 (single isomer, unassigned) [Compound 145a, (4-(2-fluoro-4-(1H-pyrazol-4-yl)phenyl)piperidin-1-yl)(3-hydroxycyclopentyl) methanone] | 86.67 | 60.45 |  |  |  | 
2 | O=C(N1CCCC1)N1CCC(c2ccc(-c3cn[nH]c3)c(F)c2F)CC1 [Compound 71, (4-(2,3-difluoro-4-(1H-pyrazol-4-yl)phenyl)piperidin-1-yl)(pyrrolidin-1-yl) methanone] |  |  | 19.7 | 95.89 | 75.13 | absorption and blood exposure after oral administration (in words) [3]: well absorbed and exhibit high blood exposure; AUC(0-inf) [3]: 58000 ng·h/mL; Cmax [3]: 8730 ng/mL; Tmax [3]: 2 h; half-life [3]: 2.41 h; AUC(0-t) [3]: 57900 ng·h/mL
3 | O=C(CCCCCc1ccccc1)NCC1CCN(c2ccc(-c3cn[nH]c3)cc2)CC1 [Compound 113, N-((1-(4-(1H-pyrazol-4-yl)phenyl)piperidin-4-yl)methyl)-6-phenylhexanamide] |  |  | 20.6 | 87.72 | 57.83 | absorption and blood exposure after oral administration (in words) [3]: well absorbed and exhibit high blood exposure; AUC(0-inf) [3]: 10100 ng·h/mL; Cmax [3]: 2420 ng/mL; Tmax [3]: 1.33 h; half-life [3]: 2.93 h; AUC(0-t) [3]: 10100 ng·h/mL; IC50 [4]: 15.5 nM
4 | O=C1CCCCCN1CC1CCN(c2ccc(-c3cn[nH]c3)cc2F)CC1 [Compound 161, 1-((1-(2-fluoro-4-(1H-pyrazol-4-yl)phenyl)piperidin-4-yl)methyl) azepan-2-one] | 86.45 | 59.36 |  |  |  | 
5 | O=C(N1CCC(c2ccc(-c3cn[nH]c3)cc2F)CC1)N1Cc2ccccc2C1 [Compound 136, (4-(2-fluoro-4-(1H-pyrazol-4-yl)phenyl)piperidin-1-yl)(isoindolin-2-yl) methanone] | 87.34 |  | 19.4 |  |  | IC50 [2]: 664 nM
6 | O=C(C1CCN(c2ccc(-c3cn[nH]c3)cc2F)CC1)N1CC2CCCC2C1 (stereo not drawn) [Compound 153, (1-(2-fluoro-4-(1H-pyrazol-4-yl)phenyl)piperidin-4-yl)(hexahydrocyclopenta[c]pyrrol-2 (1H)-yl) methanone] | 74.69 |  | 32.4 |  |  | absorption and blood exposure after oral administration (in words) [3]: well absorbed and exhibit high blood exposure; AUC(0-inf) [3]: 566000 ng·h/mL; Cmax [3]: 75200 ng/mL; Tmax [3]: 2 h; half-life [3]: 3.26 h; AUC(0-t) [3]: 558000 ng·h/mL; IC50 [4]: 361 nM
7 | CC(C)(O)CNC(=O)N1CCC(c2ccc(-c3cn[nH]c3)cc2F)CC1 [Compound 152, 4-(2-fluoro-4-(1H-pyrazol-4-yl)phenyl)-N-(2-hydroxy-2-methylpropyl)piperidine-1-carboxamide] | 88.49 | 48.10 |  |  |  | 
8 | O=C1CCCN1CCC1CCN(c2ccc(-c3cn[nH]c3)cc2)CC1 [Compound 48, 1-(2-(1-(4-(1H-pyrazol-4-yl)phenyl)piperidin-4-yl)ethyl)pyrrolidin-2-one] |  |  |  | 73.42 | 39.97 | 
9 | O=C1CCCN1CC1CCN(c2ccc(-c3cn[nH]c3)nc2)CC1 [Compound 22, 1-((1-(6-(1H-pyrazol-4-yl)pyridin-3-yl)piperidin-4-yl)methyl)pyrrolidin-2-one] |  |  |  | 53.10 | 34.61 | 
10 | O=C(C1CCN(c2ccc(-c3cn[nH]c3)cc2)CC1)N1CC2CCC1C2 (stereo not drawn) [Compound 65, (1-(4-(1H-pyrazol-4-yl)phenyl)piperidin-4-yl)(2-azabicyclo[2.2.1]heptane-2-yl) methanone] |  |  |  | 52.63 | 2.30 | 
11 | CCCCCCC(=O)NCC1CCN(c2ccc(-c3cn[nH]c3)cc2)CC1 [Compound 44, N-((1-(4-(1H-pyrazol-4-yl)phenyl)piperidin-4-yl)methyl) heptylamide] |  |  | 25.2 | 85.05 |  | IC50 [4]: 33.8 nM
12 | O=C1CCC(=O)N1CC1CCN(c2ccc(-c3cn[nH]c3)cc2)CC1 [Compound 28, 1-((1-(4-(1H-pyrazol-4-yl)phenyl)piperidin-4-yl)methyl)pyrrolidine-2,5-dione] |  |  |  | 55.98 | 16.98 | 
13 | O=S(=O)(c1ccc(F)cc1)N1CCC(c2ccc(-c3cn[nH]c3)cc2F)CC1 [Compound 120, 4-(2-fluoro-4-(1H-pyrazol-4-yl)phenyl)-1-((4-fluorophenyl)sulfonyl)piperidine] |  |  | 16.1 | 93.40 | 71.20 | IC50 [4]: 107 nM

More lines, main results first:

Row | HLM (% inh @ 100 nM) [1] [%] | MLM (% inh @ 1000 nM) [2] [%] | IC50 [1] [nM] | HLM (% inh @ 500 nM) [1] [%] | RLM (% inh @ 500 nM) [4] [%] | SMILES | other results
14 |  |  | 17.6 |  |  | O=C(N1CCC(c2ccc(-c3cn[nH]c3)cc2F)CC1)C1(O)CCCCC1 [Compound 140, (4-(2-fluoro-4-(1H-pyrazol-4-yl)phenyl)piperidin-1-yl)(1-hydroxycyclohexyl) methanone] | IC50 [2]: 1520 nM
15 | 83.42 | 47.54 |  |  |  | O=C(C1CCCCC1O)N1CCC(c2ccc(-c3cn[nH]c3)cc2F)CC1 (single isomer, unassigned) [Compound 149b, (4-(2-fluoro-4-(1H-pyrazol-4-yl)phenyl)piperidin-1-yl)(2-hydroxycyclohexyl) methanone] | 
16 |  |  | 25.6 |  |  | O=C(N1CCN(c2ccc(-c3cn[nH]c3)cc2F)CC1)C1(O)CCCCC1 [Compound 132, (4-(2-fluoro-4-(1H-pyrazol-4-yl)phenyl)piperazin-1-yl)(1-hydroxycyclohexyl) methanone] | IC50 [2]: 2420 nM
17 | 84.56 | 40.18 |  |  |  | COC1(C(=O)N2CCC(c3ccc(-c4cn[nH]c4)cc3)CC2)CCCCC1 [Compound 150, (4-(4-(1H-pyrazol-4-yl)phenyl)piperidin-1-yl)(1-methoxycyclohexyl) methanone] | 
18 |  |  | 22 | 96.23 |  | O=C(C1CCCC1)N1CCC(c2ccc(-c3cn[nH]c3)c(F)c2F)CC1 [Compound 98, cyclopentyl(4-(2,3-difluoro-4-(1H-pyrazol-4-yl)phenyl)piperidin-1-yl) methanone] | absorption and blood exposure after oral administration (in words) [3]: well absorbed and exhibit high blood exposure; AUC(0-inf) [3]: 98600 ng·h/mL; Cmax [3]: 8700 ng/mL; Tmax [3]: 3 h; half-life [3]: 2.38 h; AUC(0-t) [3]: 98400 ng·h/mL; IC50 [4]: 9.68 nM
19 | 88.49 | 48.10 |  |  |  | O=C(C1CCC(O)C1)N1CCC(c2ccc(-c3cn[nH]c3)cc2F)CC1 (single isomer, unassigned) [Compound 145b, (4-(2-fluoro-4-(1H-pyrazol-4-yl)phenyl)piperidin-1-yl)(3-hydroxycyclopentyl) methanone] | 
20 | 87.74 | 60.66 |  |  |  | O=C(C1CCOC1)N1CCC(c2ccc(-c3cn[nH]c3)cc2F)CC1 (stereo not drawn) [Compound 144, (4-(2-fluoro-4-(1H-pyrazol-4-yl)phenyl)piperidin-1-yl)(tetrahydrofuran-3-yl) methanone] | 
21 | 88.15 | 59.36 |  |  |  | O=C(N1CCC(c2ccc(-c3cn[nH]c3)cc2F)CC1)C1(F)CCCCC1 [Compound 141, (4-(2-fluoro-4-(1H-pyrazol-4-yl)phenyl)piperidin-1-yl)(1-fluorocyclohexyl) methanone] | 
